Source: the NIST ThermoML archive (doi:10.1016/j.tca.2011.08.021)
“And” between values parts separate entries of the source, which are not always exact repeats. Equal values may be shown once.

Key:
[1] = molar heat capacity at constant pressure; conditions: 101.33 kPa, Crystal, Small sample (50 mg) DSC
[2] = 393 K; 101.33 kPa; Crystal; X-ray diffraction

[Nd+3].[Nd+3].[O-2].[O-2].[O-2].[O-2].[O-2].[O-2].[O-2].[Zr+4].[Zr+4] [dineodymium(III) dizirconium(IV) oxide]
[1]
Conditions	molar heat capacity at constant pressure
293 K	236.67 J/K/mol
303 K	238.41 J/K/mol
313 K	240.75 J/K/mol
573 K	275.35 J/K/mol
623 K	280.65 J/K/mol
673 K	284.79 J/K/mol
723 K	288.11 J/K/mol
773 K	290.8 J/K/mol
823 K	293.01 J/K/mol
873 K	294.85 J/K/mol
923 K	296.39 J/K/mol
973 K	297.7 J/K/mol
1023 K	298.83 J/K/mol
1073 K	299.79 J/K/mol
1123 K	300.63 J/K/mol and 302 J/K/mol
1173 K	301.36 J/K/mol
1273 K	302.57 J/K/mol
1323 K	303.07 J/K/mol
1373 K	303.52 J/K/mol

Conditions	mass density [kg/m3]
[2]	6411
